Assays:
Assay type in all cases: cell-based
BTRes1 cells [1] = assay: Growth of siRNA-transfected BTRes1 cells in the presence of HERCEPTIN; conditions: HERCEPTIN 0-1 ug/ml, cell counts three days post-treatment
Description: Percent Normalized Growth was then calculated: Percent Normalized Growth=[(Day 3 cell counts with Antibody Added )−(Zero-day cell counts)]/[(Day 3 Cell counts without antibody added)−(Zero-day cell counts)]×100%
(§1) BT474 cells were transfected in triplicate with control siRNA (Santa Cruz Biotechnologies; sc-37007), and BTRes1 cells were transfected in triplicate with control or MUC1-specific siRNA (Santa Cruz Biotechnologies sc-35985). One microliter of 10 uM siRNA was added to 100 ul of OptiMEM medium (Invitrogen 22600134). Six microliters of HiPerfect reagent (Qiagen 301704) were then added to each tube. After vortexing, tubes were incubated at room temperature for 20 minutes. Meanwhile, cells were trypsinized, pelleted and resuspended in fresh RPMI without HERCEPTIN. 5×10^5 cells in 2.3 ml RPMI were combined with the OptiMEM with siRNA/HiPerfect complexes and added to a well of a 6 well plate. Two days later, cells were re-transfected by the same method, and plated in 96 well plates, at 10,000 cells/well, five wells/condition. Leftover cells were plated in six well plates. […] The following day, cells plated in 6 well plates were harvested and pelleted for Western analysis to evaluate siRNA efficacy. Three days later, cells were counted, and Percent Normalized Growth was calculated.

MUC1* = assay: Western blot of MUC1* after siRNA transfection; conditions: Western Blot after transient siRNA transfection
Description: as §1

BTRes1 cells [2] = assay: Cell death of BTRes1 cells with chemotherapeutic agents with or without Anti-MUC1* Fab (Trypan Blue exclusion); conditions: for resistance of BTRes1 and restored killing effect with Anti-MUC1* Fab: 10 ug/ml Anti-MUC1* Fab
Description: (§2) BT474, BTRes1 and BTRes2 cells were plated at 10,000 cells/well in 96 well plates, 4 wells/condition. The following day, Cyclophosphamide, Taxol, or Doxorubicin were added in varying concentrations, alone, or in the presence of 10 ug/ml Anti-MUC1* Fab or 10 ug/ml Control Fab. Cells were left untreated, or treated with either Fab alone as controls. Two days later, cells were resuspended in 50 ul trypsin, and counted in the presence of trypan blue. Percent cell death was calculated as percent trypan blue uptake.

BT474 cells = assay: Cell death of BT474 cells with chemotherapeutic agents (Trypan Blue exclusion); conditions: 10 nM Taxol, two days post-treatment
Description: as §2

“MUC1 siRNA: MUC1-specific siRNA (Santa Cruz Biotechnologies sc-35985) (GCAGCCTCTCGATATAACCATCTCGAGGGGTTATATCGAGAGGCTGC; expressed or natural sequence)” was tested, and the “growth in the presence of HERCEPTIN of cells transfected with the siRNA” value (BTRes1 cells [1]) was “reduced” and the “MUC1* level” value (MUC1*) was “Down regulation”.

`O=P1(N(CCCl)CCCl)NCCCO1` (stereo not shown) [Cyclophospharnide, Cyclophosphamide] was tested, and the “resistance of BTRes1 and restored killing effect with Anti-MUC1* Fab” value (BTRes1 cells [2]; 10 uM drug) was “also observed”.

For `CC(=O)O[C@H]1C(=O)[C@@]2(C)[C@H]([C@H](OC(=O)c3ccccc3)[C@]3(O)C[C@H](OC(=O)[C@H](O)[C@@H](NC(=O)c4ccccc4)c4ccccc4)C(C)=C1C3(C)C)[C@]1(OC(C)=O)CO[C@@H]1C[C@@H]2O` [Taxol], the cell killing (BT474 cells) was “effectively killed”, the cell killing (BTRes1 cells [2]; BTRes1, 10 nM Taxol alone, two days, compared to untreated cells) was “essentially unaffected” and the “killing effect with Anti-MUC1* Fab” value (BTRes1 cells [2]; BTRes1, 10 nM Taxol and 10 ug/ml Anti-MUC1* Fab) was “restored”.

For `COc1cccc2c1C(=O)c1c(O)c3c(c(O)c1C2=O)C[C@@](O)(C(=O)CO)C[C@@H]3O[C@H]1C[C@H](N)[C@H](O)[C@H](C)O1` [Doxorubicin], the “resistance of BTRes1 and restored killing effect with Anti-MUC1* Fab” value (BTRes1 cells [2]; 1 uM drug) was “also observed”.
